Measurements: BindingDB's records for PubMed 38943875 (Kurukshetra University)

Target: T1, Alpha-amylase 1A (Homo sapiens, UniProt P0DUB6)
T1 sequence (P0DUB6 whole entry): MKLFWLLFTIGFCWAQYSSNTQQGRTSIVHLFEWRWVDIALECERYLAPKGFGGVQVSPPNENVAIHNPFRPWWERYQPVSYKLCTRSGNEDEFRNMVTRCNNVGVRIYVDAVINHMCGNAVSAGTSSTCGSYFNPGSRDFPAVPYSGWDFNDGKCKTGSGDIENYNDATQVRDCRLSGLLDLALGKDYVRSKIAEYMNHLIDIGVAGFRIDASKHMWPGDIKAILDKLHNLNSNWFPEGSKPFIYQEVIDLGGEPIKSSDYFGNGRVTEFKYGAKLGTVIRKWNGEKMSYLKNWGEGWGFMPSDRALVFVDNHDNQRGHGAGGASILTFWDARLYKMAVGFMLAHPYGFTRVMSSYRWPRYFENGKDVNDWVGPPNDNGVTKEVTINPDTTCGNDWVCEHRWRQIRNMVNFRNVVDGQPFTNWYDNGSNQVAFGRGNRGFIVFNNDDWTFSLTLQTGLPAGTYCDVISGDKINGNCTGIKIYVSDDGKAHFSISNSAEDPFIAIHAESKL
Assay: Inhibition of alpha-amylase (unknown origin) using 1% starch as substrate preincubated for 30 mins followed by substrate addition and measured after 30 mins by colorimetric analysis

Cc1ccc(C)c(-n2cc(CN3C(=O)SC(=CN(C)C)C3=O)nn2)c1 was tested, and the IC50 was 93 µM.

For CN(C)C=C1SC(=O)N(Cc2cn(-c3ccc(F)cc3)nn2)C1=O, the IC50 was 93 µM.

CCc1ccc(-n2cc(CN3C(=O)SC(=CN(C)C)C3=O)nn2)cc1 gave an IC50 of 68 µM.

COc1cccc(-n2cc(CN3C(=O)SC(=CN(C)C)C3=O)nn2)c1 gave an IC50 of 69 µM.

With CN(C)C=C1SC(=O)N(Cc2cn(-c3ccc(C(F)(F)F)cc3)nn2)C1=O the IC50 was 84 µM.

Work on CN(C)C=C1SC(=O)N(Cc2cn(-c3ccc(Cl)cc3)nn2)C1=O yielded an IC50 of 98 µM.

With CCc1ccccc1-n1cc(CN2C(=O)SC(=CN(C)C)C2=O)nn1 the IC50 was 49 µM.

For CN(C)C=C1SC(=O)N(Cc2cn(Cc3ccc(Cl)cc3Cl)nn2)C1=O, the IC50 was 45 µM.

For C#CCN1C(=O)SC(=CN(C)C)C1=O, the IC50 was 139 µM.

Cc1ccc(-n2cc(CN3C(=O)SC(=CN(C)C)C3=O)nn2)c(C)c1 gave an IC50 of 48 µM.

CN(C)C=C1SC(=O)N(Cc2cn(CC(=O)c3ccc(Br)cc3)nn2)C1=O gave an IC50 of 78 µM.

COc1ccccc1-n1cc(CN2C(=O)SC(=CN(C)C)C2=O)nn1 showed an IC50 of 65 µM.

CN(C)C=C1SC(=O)N(Cc2cn(Cc3ccccc3)nn2)C1=O showed an IC50 of 80 µM.

For CCCCn1cc(CN2C(=O)SC(=CN(C)C)C2=O)nn1, the IC50 was 58 µM.

For CN(C)C=C1SC(=O)N(Cc2cn(-c3ccc([N+](=O)[O-])cc3)nn2)C1=O, the IC50 was 59 µM.

Work on Cc1cc(C)cc(-n2cc(CN3C(=O)SC(=CN(C)C)C3=O)nn2)c1 yielded an IC50 of 66 µM.

For CN(C)C=C1SC(=O)N(Cc2cn(-c3cccc(C(F)(F)F)c3)nn2)C1=O, the IC50 was 55 µM.

Molecule Cc1cccc(-n2cc(CN3C(=O)SC(=CN(C)C)C3=O)nn2)c1 has an IC50 of 61 µM.

With CN(C)C=C1SC(=O)N(Cc2cn(-c3ccccc3)nn2)C1=O the IC50 was 99 µM.

For CC(C)c1ccc(-n2cc(CN3C(=O)SC(=CN(C)C)C3=O)nn2)cc1, the IC50 was 54 µM.

Work on CN(C)C=C1SC(=O)N(Cc2cn(-c3ccccc3Cl)nn2)C1=O yielded an IC50 of 91 µM.

Molecule CN(C)C=C1SC(=O)N(Cc2cn(-c3ccccc3C(F)(F)F)nn2)C1=O has an IC50 of 48 µM.

CN(C)C=C1SC(=O)N(Cc2cn(-c3cccc(Cl)c3)nn2)C1=O gave an IC50 of 66 µM.

In the case of COc1ccc(-n2cc(CN3C(=O)SC(=CN(C)C)C3=O)nn2)cc1, the IC50 is reported as 53 µM.

CN(C)C=C1SC(=O)N(Cc2cn(-c3ccnc4cc(Cl)ccc34)nn2)C1=O showed an IC50 of 40 µM.

For CN(C)C=C1SC(=O)N(Cc2cn(-c3cccc(Cl)c3Cl)nn2)C1=O, the IC50 was 60 µM.
